Laboratory results reported in patent US20090240070A1, “WHITENING DERMATOLOGICAL PREPARATIONS” (SHOWA DENKO K.K., priority 2006, published 2009).

Legend:
[1] = test system: culture skin model (MEL-300) containing melanin cells; conditions: for Amount of melanin synthesized (% relative to the control): 0.5% by mass test article solution, 0.1 ml, 11 days of incubation, control = 100%; for inhibition of melanin synthesis compared with tranexamic acid (in words): conclusion from Table 4
Description: The above test articles, each 0.5% by mass, were dissolved separately in sterilized water containing 10% bovine serum albumin and 1% DMSO to give test article solutions.
The skin model was cultured for 11 days using the supplied culture medium LLMM. Each article was tested two times. The culture medium was changed every other day during the incubation.
After 11 days of incubation, the skin model was washed and was measured for the cell survival rate by colorimetry (570 nm) with the Alamar Blue reagent (manufactured by Molecular Probe). Thereafter, the melanin synthesized in the skin model was determined in the following manner.
The skin model was soaked overnight in a liquid which consisted of 0.2 ml of a 10 mM tris buffer solution (pH 6.8) containing 1% SDS and 0.05 mM EDTA, and 0.02 ml of 5 mg/ml Proteinase K. On the next day, 0.02 ml of 5 mg/ml Proteinase K was added, followed by heating at 45° C. for 4 hours. Consequently, the skin model was dissolved. The lysate was made alkaline with 0.025 ml of a 500 mM sodium carbonate solution, and was combined with 5 μl of 30% hydrogen peroxide, followed by heating at 80° C. for 30 minutes to perform reaction. To prepare a standard sample solution, 0.24 ml of a melanin solution of known concentration was combined with 0.025 ml of a 500 mM sodium carbonate solution and 5 μl of 30% hydrogen peroxide, followed by heating at 80° C. for 30 minutes to perform reaction.
The standard sample solution and the lysate obtained were each cooled and extracted with 0.1 ml of chloroform/methanol (2/1). The aqueous phase was measured for the absorbance at 405 nm, and the melanin synthesized was determined using a calibration curve obtained with the standard sample.

[2] = 0.5% by mass solution, 0.1 ml on minipig skin, 24 hours, 37° C.; HPLC
Description: The above test articles, each 0.5% by mass, were dissolved separately in Dulbecco's PBS (−) containing 10% bovine serum albumin to give test article solutions.
2-cm square skin pieces of minipig (Charles River Laboratories Inc. (United States of America)) were placed in the Netwell (manufactured by Corning Incorporated), and assay rings (Teflon® rings with a center opening) on which a silicon sealant had been applied were pressed and fixed to the epidermis of the skin. Subsequently, 2 ml of a skin culture medium (TOYOBO CO., LTD.) was added to a multiwell plate, and the Netwell was set such that skin lower portions would be soaked. Each of the test article solutions, 0.1 ml, was slowly poured into the opening of assay ring. When no leakage was confirmed, the Netwell was sealed with multiplate seals and were allowed to stand in an incubator at 37° C. and 5% carbon dioxide. […]
The test articles in the tissue extracts were determined by HPLC.
The protein in the tissue extracts was determined by the Lowry method.
400 μl of the reagent 4 was added to a sample tube containing 20 μl of the tissue extract or the standard sample solution, followed by mixing. […] The absorbance at 750 nm was measured with a spectrophotometer, and the protein concentration in the tissue extract was determined using a calibration curve obtained with the standard sample.

Row | SMILES | Amount of melanin synthesized (% relative to the control) [1] [%] | inhibition of melanin synthesis compared with tranexamic acid (in words) [1] | Determined value, amount of test article in skin tissue extract [2] [μmol/mg skin protein]
1 | Cc1c(C)c2c(c(C)c1OC(=O)[C@H]1CC[C@H](CN)CC1)CCC(C)(CCCC(C)CCCC(C)CCCC(C)C)O2.Cl (mixture of isomers) [b, dl-α-Tocopherol tranexamate hydrochloride] | 60 | inhibit the melanin synthesis more effectively than tranexamic acid | 
2 | Cc1c(OC(=O)[C@H]2CC[C@H](CN)CC2)cc2c(c1C)OC(C)(CCCC(C)CCCC(C)CCCC(C)C)CC2.Cl (mixture of isomers) [c, dl-γ-Tocopherol tranexamate hydrochloride] | 44 | inhibit the melanin synthesis more effectively than tranexamic acid | 
3 | NC[C@H]1CC[C@H](C(=O)O)CC1 [a, Tranexamic acid, reference compound] | 99 |  | 0.034
